{"source": "ChEMBL document CHEMBL1128376", "about": "“Carbethoxylating agents as inhibitors of aldehyde dehydrogenase” (J Med Chem, 1995)", "system": "aldehyde dehydrogenase (Saccharomyces cerevisiae)", "assay": "In vitro inhibition against yeast aldehyde dehydrogenase; IA means In active; call rule not given here", "data": [{"compound": "CCOC=O", "note": "[ETHOXYCARBONYL GROUP]", "values": [{"measurement": "IC50", "result": "Not Active"}]}]}
